The values that follow come from patent publication US9187460B2, “Estrogen receptor modulators and uses thereof” (SERAGON PHARMACEUTICALS, INC., priority 2011, dated 2015).

For one assay, the system named is MCF-7 cells. In words: Breast Cancer Cell Viability Assay (MCF7 Viability Assay). Conditions: for IC50: Homo sapiens, MCF7, 120 h, read-out: MCF7 Viability Assay IC50; for MCF7 Viability Assay Max Response: MCF-7 cells, 5 days' compound exposure, CellTiter-Glo. Format: cell-based.
A further assay deals with T1, ER-α (Homo sapiens, UniProt P03372).
T1 construct: endogenous in cells; host or cells: MCF-7
In words: Breast Cancer Cell ER-α in Cell Western Assay (SP1). The format is cell-based. Particulars: MCF7, read-out: ER In-Cell Western Assay (SP1); Max Response. How it is done: Breast Cancer Cell ER-α in Cell Western Assay (SP1)
MCF-7 cells were adjusted to a concentration of 200,000 cells per mL in RPMI containing 10% charcoal-stripped FBS and 20 mM HEPES. 16 microliters of the cell suspension (3200 cells) was added to each well of a poly-D-lysine 384 well plate, and the cells were incubated overnight to allow the cells to adhere. The following day an eleven point, serial semilog dilution of each compound was added to the cells in 16 μL at a final concentration ranging from 0.3-0.000003 μM. At 4 or 24 hr post compound addition, the cells were fixed (10% formalin in PBS) for 20 minutes. Cells were permeablized in PBS 0.1% Triton and blocked with LICOR blocking buffer (50 μl/well, 90′). The wells were then incubated overnight at 4° C. with SP1 rabbit monoclonal Ab (Thermo Scientific) diluted 1:1000 in LICOR blocking buffer/0.1% Tween-20. Wells which were treated with blocking buffer with Tween but no antibody were used as a background control. Wells were washed with 0.1% Tween-20/PBS and then incubated in goat anti-rabbit IRDye™ 800CW (LICOR Inc.; 1:1000) and DRAQ5 DNA dye (1:2000 for 2 mM stock) diluted in LICOR blocking buffer containing 0.1% Tween-20 and 0.01% SDS for 60 minutes. Cells were washed (50 μl/well, 5′ each) in 0.1% Tween-20/PBS. Plates were scanned on a LICOR Odyssey infrared imaging system. Integrated intensities in the 800 nm channel and 700 nm channel were measured to determine levels of ER and DNA respectively. Percent ER levels were determined as follows: (Integrated intensity 800 nm sample/integrated intensity 700 nm sample)/(Integrated intensity 800 nm untreated cells/integrated intensity 700 nm untreated cells)×100=% ER levels.

Bounds are passed on as bounds.

T1 sequence (P03372 whole entry): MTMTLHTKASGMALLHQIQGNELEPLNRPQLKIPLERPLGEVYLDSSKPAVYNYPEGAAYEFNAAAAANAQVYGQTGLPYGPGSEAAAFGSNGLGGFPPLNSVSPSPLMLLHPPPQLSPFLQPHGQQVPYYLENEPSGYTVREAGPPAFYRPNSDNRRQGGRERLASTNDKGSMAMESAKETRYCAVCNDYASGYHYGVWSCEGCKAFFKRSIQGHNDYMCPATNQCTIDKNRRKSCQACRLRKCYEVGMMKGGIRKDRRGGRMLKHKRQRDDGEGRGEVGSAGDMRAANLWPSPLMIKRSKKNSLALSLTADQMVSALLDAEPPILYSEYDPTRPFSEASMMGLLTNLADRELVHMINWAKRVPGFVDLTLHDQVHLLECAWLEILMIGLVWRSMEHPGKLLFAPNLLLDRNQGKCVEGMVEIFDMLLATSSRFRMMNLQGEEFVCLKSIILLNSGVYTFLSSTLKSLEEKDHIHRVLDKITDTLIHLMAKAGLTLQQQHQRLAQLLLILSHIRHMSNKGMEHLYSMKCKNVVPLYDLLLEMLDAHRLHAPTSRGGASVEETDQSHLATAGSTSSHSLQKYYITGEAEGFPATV

`CC1=C(c2cc(O)cc(Br)c2)C(c2ccc(OC[C@H](C)N3CC[C@@H](C)C3)cc2)Oc2ccc(O)cc21` (stereo partly drawn) [Example 1, 3-(3-Bromo-5-hydroxyphenyl)-4-methyl-2-(4-((S)-2-((R)-3-methylpyrrolidin-1-yl)propoxy)phenyl)-2H-chromen-6-ol]: in the assay on MCF-7 cells, the concentration for half-maximal inhibition (IC50) is less than 1 nM and the “MCF7 Viability Assay Max Response” value is listed as “++ (++ = a single % value ≧50%)”. Moreover, the Emax on ER-α was more than 85%.

As for `CC1=C(c2cc(O)ccc2Br)C(c2ccc(OC[C@H](C)N3CC[C@@H](C)C3)cc2)Oc2ccc(O)cc21` (stereo partly drawn) [Example 2, 3-(2-Bromo-5-hydroxyphenyl)-4-methyl-2-(4-((S)-2-((R)-3-methylpyrrolidin-1-yl)propoxy)phenyl)-2H-chromen-6-ol], in the assay on MCF-7 cells, the half-inhibitory concentration (IC50) was less than 1 nM and the “MCF7 Viability Assay Max Response” value is “++ (++ = a single % value ≧50%)”. Moreover, on ER-α, the Emax was more than 85%.

Regarding `CC1=C(c2ccccc2Br)C(c2ccc(OC[C@H](C)N3CC[C@@H](C)C3)cc2)Oc2ccc(O)cc21` (stereo partly drawn) [Example 3, 3-(2-Bromophenyl)-4-methyl-2-(4-((S)-2-((R)-3-methylpyrrolidin-1-yl)propoxy)phenyl)-2H-chromen-6-ol], in the assay with MCF-7 cells, the half-inhibitory concentration (IC50) is less than 1 nM and the “MCF7 Viability Assay Max Response” value is recorded as “++ (++ = a single % value ≧50%)”. Besides, on ER-α, the Emax is 60 to 85%.

Take `CC1=C(c2ccc(Br)cc2C)C(c2ccc(OC[C@H](C)N3CC[C@@H](C)C3)cc2)Oc2ccc(O)cc21` (stereo partly drawn) [Example 4, 3-(4-Bromo-2-methylphenyl)-4-methyl-2-(4-((S)-2-((R)-3-methylpyrrolidin-1-yl)propoxy)phenyl)-2H-chromen-6-ol]: in the assay with MCF-7 cells, the IC50 was more than 1 nM and the “MCF7 Viability Assay Max Response” value is reported as “++ (++ = a single % value ≧50%)”. Further, on ER-α, the Emax lay in the range of 60 to 85%.

In the case of `CC1=C(c2ccc(C#N)cc2)C(c2ccc(OC[C@H](C)N3CC[C@@H](C)C3)cc2)Oc2ccc(O)cc21` (stereo partly drawn) [Example 5, 4-(6-Hydroxy-4-methyl-2-(4-((S)-2-((R)-3-methylpyrrolidin-1-yl)propoxy)phenyl)-2H-chromen-3-yl)benzonitrile], in the assay on MCF-7 cells, the 50% inhibitory concentration (IC50) is more than 1 nM and the “MCF7 Viability Assay Max Response” value is “++ (++ = a single % value ≧50%)”. In addition, the Emax on ER-α fell in the range of 60 to 85%.

For `CC1=C(c2cccc(C#N)c2)C(c2ccc(OC[C@H](C)N3CC[C@@H](C)C3)cc2)Oc2ccc(O)cc21` (stereo partly drawn) [Example 6, 3-(6-Hydroxy-4-methyl-2-(4-((S)-2-((R)-3-methylpyrrolidin-1-yl)propoxy)phenyl)-2H-chromen-3-yl)benzonitrile], in the assay on MCF-7 cells, the IC50 was more than 1 nM and the “MCF7 Viability Assay Max Response” value is given as “++ (++ = a single % value ≧50%)”. Also, the Emax at ER-α fell in the range of 60 to 85%.

In the case of `CC1=C(c2cc(O)cc(C#N)c2)C(c2ccc(OC[C@H](C)N3CC[C@@H](C)C3)cc2)Oc2ccc(O)cc21` (stereo partly drawn) [Example 7, 3-Hydroxy-5-(6-hydroxy-4-methyl-2-(4-((S)-2-((R)-3-methylpyrrolidin-1-yl)propoxy)phenyl)-2H-chromen-3-yl)benzonitrile], in the assay with MCF-7 cells, the IC50 was less than 1 nM and the “MCF7 Viability Assay Max Response” value was “++ (++ = a single % value ≧50%)”. Moreover, the Emax at ER-α fell in the range of 60 to 85%.

In the case of `CC1=C(c2cc(O)ccc2C#N)C(c2ccc(OC[C@H](C)N3CC[C@@H](C)C3)cc2)Oc2ccc(O)cc21` (stereo partly drawn) [Example 8, 4-Hydroxy-2-(6-hydroxy-4-methyl-2-(4-((S)-2-((R)-3-methylpyrrolidin-1-yl)propoxy)phenyl)-2H-chromen-3-yl)benzonitrile], in the assay with MCF-7 cells, the half-maximal inhibitory concentration (IC50) is less than 1 nM and the “MCF7 Viability Assay Max Response” value was “++ (++ = a single % value ≧50%)”. The Emax on ER-α was more than 85%.

Regarding `CC1=C(c2cccc(O)c2C#N)C(c2ccc(OC[C@H](C)N3CC[C@@H](C)C3)cc2)Oc2ccc(O)cc21` (stereo partly drawn) [Example 9, 2-Hydroxy-6-(6-hydroxy-4-methyl-2-(4-((S)-2-((R)-3-methylpyrrolidin-1-yl)propoxy)phenyl)-2H-chromen-3-yl)benzonitrile], in the assay with MCF-7 cells, the half-maximal inhibitory concentration (IC50) was more than 1 nM and the “MCF7 Viability Assay Max Response” value was “++ (++ = a single % value ≧50%)”. Besides, the Emax at ER-α was 60 to 85%.
